Measurements as given in US4207326A, “Antimicrobial quaternary pyrazole derivatives” (Cilag-Chemie A.G., priority 1979, dated 1980).

The compounds below were run on E. coli (assay: Antibacterial activity: Minimum Inhibitory Concentration). Conditions: Escherichia coli, Day 1, 37° C., 24 hours.
Format: cell-based, Escherichia coli ATCC 8739
Experimental: (§1) The antimicrobial activity was determined by inoculation of the test microorganism into suitable growth media containing solutions of the compounds at concentrations of 100, 50, 10, 5, 1.0, 0.5 and 0.1 μg/ml. The reference antibiotics used were Gentamicin for the antibacterial tests and Amphotericin B for the antimycotic and antifungal tests. After incubation the antimicrobial activity was recorded as the Minimal Inhibitory Concentration (M.I.C.), i.e., the lowest concentration preventing macroscopically visible growth, for each test compound against each organism.
(§2) An initial solution of each formula (I) compound to be tested in sterile distilled water was prepared at a concentration of 1000 μg/ml. With appropriate dilutions using sterile distilled water, additional solutions were prepared at concentrations of 500, 100, 50, 10, 5 and 1 μg/ml.
(§3) They were cultured and maintained on Tryptone Soy Agar (Oxoid CM 131), with the addition of 10% horse blood for the S. pyogenes.
(§4) To prepare the organisms as inocula for the test, slopes of this medium were streaked with the organisms and incubated at 37° C. for 24 hours. 4.5 Ml volumes of Brian-Heart Infusion Broth (Oxoid CM 225) were then inoculated with a platinum loop from the agar slope cultures and incubated for 24 hours at 37° C. The final inocula were then prepared by adding 0.1 ml aliquots of the Brain-Heart Infusion Broth cultures to 100 ml volumes of sterile physiological saline.
(§5) (a) For the test on each of the bacterial strains and each of the test and reference compounds, a series of 8 tubes containing 4.5 ml volumes of Brain-Heart Infusion Broth (Oxoid CM 225) were prepared. To 7 of these were added 0.5 ml volumes of the final solutions of the test compouns, giving final concentrations in the broths of 100, 50, 10, 5, 1.0, 0.5 and 0.1 μg/ml. To the eighth tube in each series was added 0.5 ml of the solvent used and diluted as for the preparation of the 1000 μg/ml solution of the compound. This tube was used as the growth control. The tubes were inoculated with 0.02 ml aliquots of the inocula prepared in accordance with "(a) Bacteria" above, and incubated at 37° C. for 24 hours. The tubes were then examined for evidence of bacterial growth as shown by turbidity of the medium and the lowest concentration of the test compound which prevented bacterial growth was recorded as the Minimal Inhibitory Concentration. This test procedure was carried out on two separate days.
Compound `CCCCCCCCCCCCn1c(C)cc(C)[n+]1C` [Example 1, 1-dodecyl-2,3,5-trimethyl-pyrazolium methosulfate] has an MIC of 50 µg/mL.
With `CCCCCCCCCCCCCCCCn1c(C)cc(C)[n+]1C` [Example 2, 1-hexadecyl-2,3,5-trimethyl-pyrazolium methosulfate] the MIC was 10 µg/mL.

Same assay, conditions: Escherichia coli, Day 2, 37° C., 24 hours
`CCCCCCCCCCCCn1c(C)cc(C)[n+]1C` [Example 1, 1-dodecyl-2,3,5-trimethyl-pyrazolium methosulfate] was tested, and the MIC was 100 µg/mL.
For `CCCCCCCCCCCCCCCCn1c(C)cc(C)[n+]1C` [Example 2, 1-hexadecyl-2,3,5-trimethyl-pyrazolium methosulfate], the MIC was 5 µg/mL.

The compounds below were run on P. mirabilis in the same assay as above. Conditions: Proteus mirabilis; P. mirabilis, Day 1; 37° C., 24 hours; read-out: Minimum Inhibitory Concentration.
Format: cell-based, Proteus mirabilis NCTC 8559
Experimental: as §1, §2, §3, §4, §5
`CCCCCCCCCCCCn1c(C)cc(C)[n+]1C` [Example 1, 1-dodecyl-2,3,5-trimethyl-pyrazolium methosulfate] gave an MIC of 100 µg/mL.
With `CCCCCCCCCCCCCCCCn1c(C)cc(C)[n+]1C` [Example 2, 1-hexadecyl-2,3,5-trimethyl-pyrazolium methosulfate] the MIC was 10 µg/mL.

Same assay, conditions: Proteus mirabilis; P. mirabilis, Day 2; 37° C., 24 hours; read-out: Minimum Inhibitory Concentration
Compound `CCCCCCCCCCCCn1c(C)cc(C)[n+]1C` [Example 1, 1-dodecyl-2,3,5-trimethyl-pyrazolium methosulfate] has an MIC of 100 µg/mL.
Work on `CCCCCCCCCCCCCCCCn1c(C)cc(C)[n+]1C` [Example 2, 1-hexadecyl-2,3,5-trimethyl-pyrazolium methosulfate] yielded an MIC of 10 µg/mL.

Each compound was assayed on C. tropicalis (assay: Antimycotic activity: Minimum Inhibitory Concentration). Conditions: Candida tropicalis, pH 5.5, C. tropicalis, Day 1; pH 5.5, 37° C., 72 hours; read-out: Minimum Inhibitory Concentrations.
Format: cell-based, Candida tropicalis NCPF 3111
Experimental: as §1, §2
The two species, C. albicans and C. tropicalis, were maintained on Sabouraud-Dextrose Agar (Oxoid CM41) and cultures for the preparation of the inoculum were incubated on this agar at 37° C. for 48 hours. 4.5 Ml volumes of citric acid-phosphate buffer pH 5.5 plus Yeast-Nitrogen Base (Difco 0392-15) were then inoculated from the agar cultures and incubated at 37° C. for 48 hours. 0.1 Ml aliquots of these cultures were then added to 100 ml volumes of sterile physiological saline to give the final inocula.
(b) For the tests on each of the C. albicans, C. tropicalis and C. neoformans strains and each of the test and reference compounds, a series of 8 tubes containing 4.5 ml volumes of citric acid-phosphate buffer pH 5.5 plus Yeast-Nitrogen Base (Difco 0392-15) were prepared. To 7 of these were added 0.5 ml volumes of the final solutions of the test compounds, giving final concentrations in the broths of 100, 50, 10, 5, 1.0, 0.5 and 0.1 μg/ml. To the eighth tube in each series was added 0.5 ml of the solvent used and diluted as for the preparation of the 1000 μg/ml solution of the compound. This tube was used as the growth control. The tubes were then inoculated with 0.1 ml aliquots of the inocula prepared as in "(b) Fungi" above. The tubes inoculated with the C. albicans and C. tropicalis were inoculated at 37° C. for 72 hours and the tubes inoculated with the C. neoformans straim were incubated at 30° C. for 72 hours. […] The tubes were then examined for evidence of growth as shown by turbidity of the medium and the lowest concentration of the test compound which prevented fungal growth was recorded as the Minimal Inhibitory Concentration. This test procedure was carried out on two separate days.
With `CCCCCCCCCCCCn1c(C)cc(C)[n+]1C` [Example 1, 1-dodecyl-2,3,5-trimethyl-pyrazolium methosulfate] the MIC was 5 µg/mL.
With `CCCCCCCCCCCCCCCCn1c(C)cc(C)[n+]1C` [Example 2, 1-hexadecyl-2,3,5-trimethyl-pyrazolium methosulfate] the MIC was 1 µg/mL.

Same assay, conditions: Candida tropicalis, pH 5.5, C. tropicalis, Day 2; pH 5.5, 37° C., 72 hours; read-out: Minimum Inhibitory Concentrations
Work on `CCCCCCCCCCCCn1c(C)cc(C)[n+]1C` [Example 1, 1-dodecyl-2,3,5-trimethyl-pyrazolium methosulfate] yielded an MIC of 5 µg/mL.
For `CCCCCCCCCCCCCCCCn1c(C)cc(C)[n+]1C` [Example 2, 1-hexadecyl-2,3,5-trimethyl-pyrazolium methosulfate], the MIC was 0.5 µg/mL.

What follows are compounds tested on T. mentagrophytes (assay: Antifungal activity: Minimum Inhibitory Concentration). Conditions: Trichophyton mentagrophytes, T. mentagrophytes, Day 1; 27° C., one week; read-out: Minimum Inhibitory Concentration.
Format: cell-based, Trichophyton mentagrophytes NCPF 410
Experimental: as §1, §2
T. mentagrophytes NCPF 410
(§6) The A. corymbifera, A. fumigatus, S. schenkii, T. rubrum, T. mentagrophytes, M. canis and P. verrucosa strains were all maintained on Sabouraud-Dextrose Agar (Oxoid CM 41) by incubating for 14 days at 27° C. To prepare the inocula 30 ml volumes of Sabouraud-Liquid medium (Oxoid CM 147) were inoculated from the agar cultures and incubated at 27° C. until heavy uniform growth resulted. The mycelial growth was then broken up by shaking with glass beads.
(§7) 1 Ml aliquots were removed from each of the cultures for the purpose of making viable counts and the cultures were then held at 4° C. The viable counts were made by preparing serial ten-fold dilutions of the cultures in sterile physiological saline and spreading on plates of Sabouraud-Dextrose Agar (Oxoid CM 41) which were then incubated at 27° C. for 14 days. When the viable counts had confirmed that each of the inocula contained approximately 10^6 colony forming units (C.F.U.) per ml the cultures were withdrawn from the refrigerator and used as the inocula for the tests.
(§8) (c) For the tests on each of the remaining seven strains and each of the test and reference compounds, a series of 8 tubes containing 4.5 ml volumes of Sabouraud-Liquid Medium (Oxoid CM 147) were prepared. To 7 of these were added 0.5 ml volumes of the final solutions of the test compounds, giving final concentrations in the broths of 100, 50, 10, 5, 1.0, 0.5 and 0.1 μg/ml. To the eighth tube in each series was added 0.5 ml of the solvent used and diluted as for the preparation of the 500 μg/ml solution of the compound. This tube was used as a growth control. The tubes were then inoculated with 0.1 ml aliquots of the inocula prepared as in "(b) Fungi" above. The tubes were then incubated at 27° C. with continuous shaking for a period of one week. The tubes were then examined for evidence of growth as shown by the presence of mycelial growth in the medium and the lowest concentration of the test compound which prevented fungal growth was recorded as the Minimal Inhibitory Concentration. This test procedure was carried out on two separate days.
With `CCCCCCCCCCCCn1c(C)cc(C)[n+]1C` [Example 1, 1-dodecyl-2,3,5-trimethyl-pyrazolium methosulfate] the MIC was 50 µg/mL.
`CCCCCCCCCCCCCCCCn1c(C)cc(C)[n+]1C` [Example 2, 1-hexadecyl-2,3,5-trimethyl-pyrazolium methosulfate] was tested, and the MIC was 1 µg/mL.

Same assay, conditions: Trichophyton mentagrophytes, T. mentagrophytes, Day 2; 27° C., one week; read-out: Minimum Inhibitory Concentration
Work on `CCCCCCCCCCCCn1c(C)cc(C)[n+]1C` [Example 1, 1-dodecyl-2,3,5-trimethyl-pyrazolium methosulfate] yielded an MIC of 50 µg/mL.
Work on `CCCCCCCCCCCCCCCCn1c(C)cc(C)[n+]1C` [Example 2, 1-hexadecyl-2,3,5-trimethyl-pyrazolium methosulfate] yielded an MIC of 5 µg/mL.

Each compound was assayed on M. canis in the same assay as above. Conditions: Microsporum canis, M. canis, Day 1; 27° C., one week; read-out: Minimum Inhibitory Concentration.
Format: cell-based, Microsporum canis NCPF 351
Experimental: as §1, §2, §6, §7, §8
`CCCCCCCCCCCCn1c(C)cc(C)[n+]1C` [Example 1, 1-dodecyl-2,3,5-trimethyl-pyrazolium methosulfate] was tested, and the MIC was 5 µg/mL.
With `CCCCCCCCCCCCCCCCn1c(C)cc(C)[n+]1C` [Example 2, 1-hexadecyl-2,3,5-trimethyl-pyrazolium methosulfate] the MIC was 10 µg/mL.

Same assay, conditions: Microsporum canis, M. canis, Day 2; 27° C., one week; read-out: Minimum Inhibitory Concentration
In the case of `CCCCCCCCCCCCn1c(C)cc(C)[n+]1C` [Example 1, 1-dodecyl-2,3,5-trimethyl-pyrazolium methosulfate], the MIC is reported as 10 µg/mL.
Compound `CCCCCCCCCCCCCCCCn1c(C)cc(C)[n+]1C` [Example 2, 1-hexadecyl-2,3,5-trimethyl-pyrazolium methosulfate] has an MIC of 5 µg/mL.

What follows are compounds tested on P. verrucosa in the same assay as above. Conditions: Phialophora verrucosa, P. verrucosa, Day 1; 27° C., one week; read-out: Minimum Inhibitory Concentration.
Format: cell-based, Phialophore verrucosa NCPF 1119
Experimental: as §1, §2, §6, §7, §8
`CCCCCCCCCCCCn1c(C)cc(C)[n+]1C` [Example 1, 1-dodecyl-2,3,5-trimethyl-pyrazolium methosulfate] gave an MIC of 5 µg/mL.
With `CCCCCCCCCCCCCCCCn1c(C)cc(C)[n+]1C` [Example 2, 1-hexadecyl-2,3,5-trimethyl-pyrazolium methosulfate] the MIC was 5 µg/mL.

Same assay, conditions: Phialophora verrucosa, P. verrucosa, Day 2; 27° C., one week; read-out: Minimum Inhibitory Concentration
`CCCCCCCCCCCCn1c(C)cc(C)[n+]1C` [Example 1, 1-dodecyl-2,3,5-trimethyl-pyrazolium methosulfate] showed an MIC of 5 µg/mL.
Compound `CCCCCCCCCCCCCCCCn1c(C)cc(C)[n+]1C` [Example 2, 1-hexadecyl-2,3,5-trimethyl-pyrazolium methosulfate] has an MIC of 10 µg/mL.
